According to patent US8846937B2, “Mono quaternary ammonium salts and methods for modulating neuronal nicotinic acetylcholine receptors” (University of Kentucky Research Foundation, priority 2006, dated 2014):

Experiments:
[1] = target: T1, Rat Striatal Nicotinic Receptors ([^3H]NIC binding) (Rattus norvegicus, UniProt P09483+P12390); experiment: Inhibition of [^3H]nicotine binding to brain membranes; settings: 3 nM [^3H]NIC; for inhibition at 0.1 µM: % inhibition at 100 nM analog, nonspecific 10 μM nicotine; for Ki: full concentration effect
T1 construct: Whole brain, excluding cortex and cerebellum, was homogenized; from tissue; host or cells: rat brain membranes (whole brain excluding cortex and cerebellum)
Procedure: (§1) Test compounds of Formula (I), representing the mono quaternary nicotine analogs of the present invention, were evaluated to determine the effect of a test compound on nicotine-binding and methyllycaconitine-binding mediated by nicotine acetylcholine receptors.
(§2) Homogenate was centrifuged (25,000 g, 15 min, 4° C.). Pellets were resuspended in 20 volumes of buffer and incubated at 37° C., for 10 min, cooled to 4° C. and centrifuged (25,000 g, 15 min, 4° C.). Pellets were resuspended and centrifuged using the same conditions. […] Upon use, final pellets were resuspended in ˜20 volumes of assay buffer. Samples (250 μl) contained 100-140 μg of membrane protein, 3 nM [^3H]nicotine or 3 nM [^3H]methyllycaconitine (MLA), and test compounds of Formula (I) (100 nM) in assay buffer containing 50 mM Tris. A control sample absent test compounds of Formula (I) was also prepared. In the [^3H]nicotine-binding assay and [^3H]MLA-binding assay, nonspecific-binding was determined in the presence of 10 μM nicotine and 10 μM MLA, respectively. Incubations proceeded for 60 min at a room temperature using 96-well plates, and were terminated by harvesting on Unifilter-96 GF/B filter plates presoaked in 0.5% polyethylenimine, using a Packard FilterMate harvester. After washing 5 times with 350 μl ice-cold assay buffer, the filter plates were dried (60 min, 4° C.), bottom-sealed, and filled with Packard's MicroScint 20 cocktail (40 μl/well). After 60 min, filter plates were top-sealed, and levels of radioactivity were determined using a Packard TopCount. Protein concentrations were determined using the Bradford dye-binding procedure using bovine serum albumin as a standard protein.
Specific binding in the [^3H]NIC binding assay is calculated as the difference between the total binding of 3 nM [^3H]NIC and nonspecific binding in the presence of 10 μM cold nicotine. […] Analog-induced inhibition of nicotine-evoked [^3H]DA release is calculated as a percent of that in the absence of the mono quaternary ammonium analog. ND indicates not determined.

[2] = target: T2, Rat Striatal Nicotinic Receptors ([^3H]MLA binding) (Rattus norvegicus, UniProt Q05941); experiment: Inhibition of [^3H]methyllycaconitine (MLA) binding to brain membranes; settings: for inhibition at 0.1 µM: % inhibition at 100 nM analog, 2.5 nM [^3H]MLA, nonspecific 1 μM MLA (footnote); for Ki: full concentration effect, 2.5 nM [^3H]MLA (footnote)
T2 construct: Whole brain, excluding cortex and cerebellum, was homogenized; from tissue; host or cells: rat brain membranes (whole brain excluding cortex and cerebellum)
Procedure: as §1
as §2, with “Samples (250 μl) contained 100-140 μg of membrane protein, 3 nM [^3H]nicotine or 3 nM [^3H]methyllycaconitine (MLA), and test compounds of Formula (I) (100 nM) in assay buffer containing 50 mM Tris.” left out, “In the [^3H]nicotine-binding assay and [^3H]MLA-binding assay, nonspecific-binding was determined in the presence of 10 μM nicotine and 10 μM MLA, respectively.” left out, “protein. […]” for “protein.”

[3] = test system: nicotinic receptors, NIC-evoked [^3H]DA release from rat striatal slices; experiment: Inhibition of nicotine-evoked [^3H]dopamine release from superfused rat striatal slices; assay type: cell-based; settings: 1 h, 100 nM analog superfused 60 minutes prior to NIC (10 μM)
Procedure: Rat striatal slices (500 μm thickness, 6-8 mg wet weight) were incubated for 30 minutes in Krebs buffer (118 mM NaCl, 4.7 mM KCl, 1.2 mM MgCl2, 1.0 mM NaH2PO4, 1.3 mM CaCl2, 11.1 mM glucose, 25 mM NaHCO3, 0.11 mM L-ascorbic acid, and 0.004 mM disodium EDTA at pH 7.4, and saturated with 95% O2/5% CO2) in a metabolic shaker at 34° C. Slices were rinsed with 15 mL of fresh buffer, and were incubated for an additional 30 minutes in fresh buffer containing 0.1 μM [^3H]dopamine (DA; 6 slices/3 mL). Subsequently, slices were rinsed with 15 mL of fresh buffer and transferred to a glass superfusion chamber. Slices were superfused (1.0 mL/min) for 60 minutes with Krebs buffer containing nomifensine (10 μM) and pargyline (10 μM), and maintained at 34° C., pH 7.4, with continual aeration (95% O2/5% CO2). Two five minute samples (5 mL each) were collected to determine basal outflow of [^3H]DA. The test compounds of Formula (I) were added to the superfusion buffer after the collection of the second sample, and were maintained in the buffer until 12 consecutive five minute samples were collected. Subsequently, S-(−)-nicotine (10 μM) was added to the buffer, and an additional 12 consecutive five minute samples were collected. At the end of the experiment, each slice was solubilized, and the [^3H]content of the tissue determined.
Radioactivity in the superfusate and tissue samples was determined by liquid scintillation spectroscopy. Fractional release of tritium collected in each sample was divided by the total tritium present in the tissue at the time of sample collection, and the fractional release of tritium collected was expressed as a percentage of total tritium. Basal [^3H]outflow was calculated from the average of the tritium collected in the two five minute samples just before addition of a test compound of Formula (I). The sum of the increase in collected tritium resulting from either exposure to a test compound of Formula (I), or exposure to S(−) nicotine in the absence and presence of a test compound of Formula (I) equaled total [^3H]overflow. [^3H]Overflow was calculated by subtracting the [^3H]outflow during an equivalent period of pre-stimulation from the values in samples collected during and after drug exposure. Inasmuch as the radio-labeled compounds were not separated and identified, the tritium collected in superfusate is referred to as either [^3H]outflow or [^3H]overflow, rather than as [^3H]DA. [^3H]Overflow primarily represents [^3H]DA in the presence of nomifensine and pargyline in the superfusion buffer.
The quaternary analogs of Formula (I) were also evaluated for their ability to inhibit NIC-evoked [^3H]DA release. In these experiments, the striatal slices were superfused for 60 minutes with 100 nM concentration of the quaternary analogs prior to NIC (10 μM) exposure. Antagonist activity was evaluated by comparing the NIC-evoked [^3H]overflow in the absence and presence of the analogs. The relative order of potency of the quaternary analogs of Formula (I) for inhibition of NIC-evoked [^3H]DA release from rat striatal slices is illustrated in Table 1.
^aData are % inhibition at 100 nM concentration of the mono quaternary analogs for at least 1-3 independent experiments; with the exception of when a Ki value in μM is provided, in which case a full concentration effect was evaluated. Specific binding in the [^3H]NIC binding assay is calculated as the difference between the total binding of 3 nM [^3H]NIC and nonspecific binding in the presence of 10 μM cold nicotine. Specific binding for the [^3H]MLA binding assay is calculated as the difference between the total binding of 2.5 nM [^3H]MLA to the receptors alone and its nonspecific binding in the presence of 1 μM cold MLA. Analog-induced inhibition of nicotine-evoked [^3H]DA release is calculated as a percent of that in the absence of the mono quaternary ammonium analog. ND indicates not determined.

T1 sequence (P09483 31-630): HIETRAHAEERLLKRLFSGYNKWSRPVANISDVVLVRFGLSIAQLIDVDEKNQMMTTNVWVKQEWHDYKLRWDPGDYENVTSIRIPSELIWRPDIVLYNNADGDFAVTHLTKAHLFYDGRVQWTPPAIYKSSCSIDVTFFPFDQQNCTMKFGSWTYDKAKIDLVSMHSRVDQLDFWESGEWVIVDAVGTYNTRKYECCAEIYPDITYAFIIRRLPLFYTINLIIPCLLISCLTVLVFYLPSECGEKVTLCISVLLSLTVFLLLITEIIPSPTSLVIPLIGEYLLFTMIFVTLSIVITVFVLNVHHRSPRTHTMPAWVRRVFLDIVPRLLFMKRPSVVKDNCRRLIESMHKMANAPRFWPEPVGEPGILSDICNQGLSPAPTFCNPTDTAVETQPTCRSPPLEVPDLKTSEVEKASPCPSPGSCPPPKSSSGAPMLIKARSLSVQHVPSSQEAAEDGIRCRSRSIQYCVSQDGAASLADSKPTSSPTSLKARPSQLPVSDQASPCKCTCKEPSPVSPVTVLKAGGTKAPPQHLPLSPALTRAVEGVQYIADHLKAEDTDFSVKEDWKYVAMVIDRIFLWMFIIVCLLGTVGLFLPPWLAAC
T1 sequence (P12390 25-500): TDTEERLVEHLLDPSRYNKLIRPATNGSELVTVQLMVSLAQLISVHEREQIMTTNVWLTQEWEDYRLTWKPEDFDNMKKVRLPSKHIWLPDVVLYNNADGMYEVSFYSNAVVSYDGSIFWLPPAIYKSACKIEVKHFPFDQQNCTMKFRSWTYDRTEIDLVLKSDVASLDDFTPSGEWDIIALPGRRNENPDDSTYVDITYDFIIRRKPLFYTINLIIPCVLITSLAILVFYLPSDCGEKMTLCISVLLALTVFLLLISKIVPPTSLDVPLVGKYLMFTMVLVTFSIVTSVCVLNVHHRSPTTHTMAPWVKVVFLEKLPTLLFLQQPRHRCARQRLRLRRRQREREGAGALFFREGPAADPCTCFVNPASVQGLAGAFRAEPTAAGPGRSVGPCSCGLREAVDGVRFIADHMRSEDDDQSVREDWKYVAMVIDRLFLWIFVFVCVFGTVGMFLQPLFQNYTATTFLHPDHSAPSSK
T2 sequence (Q05941 23-502): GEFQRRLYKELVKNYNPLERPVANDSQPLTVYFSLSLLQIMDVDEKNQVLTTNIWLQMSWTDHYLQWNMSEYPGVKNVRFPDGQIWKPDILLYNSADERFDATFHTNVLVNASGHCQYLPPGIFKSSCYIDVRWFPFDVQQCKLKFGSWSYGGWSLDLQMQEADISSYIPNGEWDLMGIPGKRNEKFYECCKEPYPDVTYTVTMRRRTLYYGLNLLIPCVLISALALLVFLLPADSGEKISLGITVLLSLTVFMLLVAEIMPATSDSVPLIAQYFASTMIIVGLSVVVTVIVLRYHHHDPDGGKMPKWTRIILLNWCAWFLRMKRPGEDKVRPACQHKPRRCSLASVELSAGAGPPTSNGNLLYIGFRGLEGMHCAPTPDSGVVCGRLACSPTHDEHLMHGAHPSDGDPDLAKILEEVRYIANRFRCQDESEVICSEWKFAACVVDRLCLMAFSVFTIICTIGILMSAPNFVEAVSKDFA

**Q.** For C(#Cc1ccc(-c2ccccc2)cc1)CCC[n+]1cccc(-c2ccccc2)c1, which inhibition at 0.1 µM [1] is on record?
**A.** The inhibition at 0.1 µM was 8%.

**Q.** And the inhibition at 0.1 µM [2]?
**A.** The inhibition at 0.1 µM was 6%.

**Q.** How did the inhibition at 0.1 µM [1] turn out when CCCCc1ccc[n+](CCCC#Cc2ccc(-c3ccccc3)cc2)c1 was run?
**A.** The inhibition at 0.1 µM was 0%.

**Q.** And the inhibition at 0.1 µM [3]?
**A.** The inhibition at 0.1 µM was 50%.

**Q.** And the inhibition at 0.1 µM [2]?
**A.** The inhibition at 0.1 µM was 9%.

**Q.** With Cc1cccc[n+]1CCCC#Cc1ccc(-c2ccccc2)cc1 as the compound, how does the inhibition at 0.1 µM [1] read?
**A.** The inhibition at 0.1 µM was 2%.

**Q.** What about the inhibition at 0.1 µM [3] of the same compound?
**A.** The inhibition at 0.1 µM was 45%.

**Q.** What about the inhibition at 0.1 µM [2] of the same compound?
**A.** Its inhibition at 0.1 µM is 7%.

**Q.** For Cc1cc[n+](CCCCCc2ccc(-c3ccccc3)cc2)cc1, which inhibition at 0.1 µM [3] is on record?
**A.** The inhibition at 0.1 µM was 18%.

**Q.** How did the Ki [1] turn out when CCCCc1ccc(C#CCC[n+]2ccc3c(c2)CCCC3)cc1 was run?
**A.** Its Ki is > 100 µM.

**Q.** And the inhibition at 0.1 µM [3]?
**A.** Its inhibition at 0.1 µM is 70%.

**Q.** And the Ki [2]?
**A.** Its Ki is 3.7 µM.

**Q.** Which inhibition at 0.1 µM [1] does the source give for CCCCc1ccc(CCCC[n+]2cccc(CCCO)c2)cc1 here?
**A.** Its inhibition at 0.1 µM is 0%.

**Q.** And the inhibition at 0.1 µM [3]?
**A.** Its inhibition at 0.1 µM is 64%.

**Q.** What about the inhibition at 0.1 µM [2] of the same compound?
**A.** The inhibition at 0.1 µM was 0%.

**Q.** What does the source list for Cc1cccc[n+]1CCCCCCCCc1ccccc1?
**A.** inhibition at 0.1 µM [1]: 0%; inhibition at 0.1 µM [3]: 62%; inhibition at 0.1 µM [2]: 0%

**Q.** Which results are given for CCCCc1ccc(CCCC[n+]2ccccc2C)cc1?
**A.** inhibition at 0.1 µM [1]: 0%; inhibition at 0.1 µM [2]: 0%

**Q.** Which inhibition at 0.1 µM [1] does the source give for Cc1ccc[n+](CCCCCc2ccc(-c3ccccc3)cc2)c1 here?
**A.** The inhibition at 0.1 µM was 4%.

**Q.** And the inhibition at 0.1 µM [3]?
**A.** Its inhibition at 0.1 µM is 55%.

**Q.** And the inhibition at 0.1 µM [2]?
**A.** Its inhibition at 0.1 µM is 7%.

**Q.** Which results are given for CN1CCC[C@H]1c1ccc[n+](CCCC#Cc2ccc(-c3ccccc3)cc2)c1?
**A.** inhibition at 0.1 µM [1]: 20%; inhibition at 0.1 µM [3]: 47%; inhibition at 0.1 µM [2]: 6%

**Q.** CCCCc1ccc(C#CCC[n+]2cccc(CC)c2)cc1 was tested. Which inhibition at 0.1 µM [1] did it give?
**A.** The inhibition at 0.1 µM was 0%.

**Q.** And the inhibition at 0.1 µM [2]?
**A.** Its inhibition at 0.1 µM is 0%.

**Q.** CCCCc1ccc(CCCC[n+]2ccc(C)cc2)cc1 was tested. Which inhibition at 0.1 µM [1] did it give?
**A.** The inhibition at 0.1 µM was 5%.

**Q.** And the inhibition at 0.1 µM [3]?
**A.** The inhibition at 0.1 µM was 58%.

**Q.** What about the inhibition at 0.1 µM [2] of the same compound?
**A.** The inhibition at 0.1 µM was 0%.

**Q.** Cc1ccc[n+](CCCCCCCCc2ccccc2)c1 was tested. Which Ki [1] did it give?
**A.** The Ki was > 100 µM.

**Q.** And the inhibition at 0.1 µM [3]?
**A.** Its inhibition at 0.1 µM is 0%.

**Q.** And the Ki [2]?
**A.** Its Ki is > 100 µM.

**Q.** For Cc1cc[n+](CCCCCCCCCCCCCc2cccnc2)cc1C, which inhibition at 0.1 µM [1] is on record?
**A.** The inhibition at 0.1 µM was 3%.

**Q.** What about the inhibition at 0.1 µM [3] of the same compound?
**A.** Its inhibition at 0.1 µM is 20%.

**Q.** What about the inhibition at 0.1 µM [2] of the same compound?
**A.** The inhibition at 0.1 µM was 0%.

**Q.** For CN1CCC[C@H]1c1ccc[n+](CCCCCc2ccc(-c3ccccc3)cc2)c1, which inhibition at 0.1 µM [3] is on record?
**A.** The inhibition at 0.1 µM was 51%.

**Q.** Which results are given for Cc1cc(C)c[n+](CCCCCCCCCCCCCc2cccnc2)c1?
**A.** inhibition at 0.1 µM [1]: 0%; inhibition at 0.1 µM [3]: 35%; inhibition at 0.1 µM [2]: 0%

**Q.** Cc1ccc[n+](CCCC#Cc2ccc(-c3ccccc3)cc2)c1 was tested. Which inhibition at 0.1 µM [1] did it give?
**A.** The inhibition at 0.1 µM was 0%.

**Q.** And the inhibition at 0.1 µM [3]?
**A.** The inhibition at 0.1 µM was 41%.

**Q.** What about the inhibition at 0.1 µM [2] of the same compound?
**A.** The inhibition at 0.1 µM was 2%.

**Q.** Which results are given for Cc1cc(C)c[n+](CCCC#Cc2ccc(-c3ccccc3)cc2)c1?
**A.** inhibition at 0.1 µM [1]: 8%; inhibition at 0.1 µM [3]: 51%; inhibition at 0.1 µM [2]: 3%

**Q.** CCCCc1ccc(CCCC[n+]2ccc3c(c2)CCCC3)cc1 was tested. Which Ki [1] did it give?
**A.** Its Ki is > 100 µM.

**Q.** What about the Ki [2] of the same compound?
**A.** The Ki was 14 µM.

**Q.** Which inhibition at 0.1 µM [1] does the source give for Cc1cc[n+](CCCC#Cc2ccc(-c3ccccc3)cc2)cc1C here?
**A.** The inhibition at 0.1 µM was 0%.

**Q.** What about the inhibition at 0.1 µM [3] of the same compound?
**A.** The inhibition at 0.1 µM was 20%.

**Q.** And the inhibition at 0.1 µM [2]?
**A.** The inhibition at 0.1 µM was 8%.
